# Several values for one entry are separate records, joined by “and”; a condition that tells them apart may be missing. Equal entries are not always repeated. Where two headings read alike, the source gives them in different places.
# Key:
# [1] = cited from earlier work
# [2] = Population pharmacokinetic (popPK) model of plasma concentrations in adult patients (OpTAT study)
# Excerpt: Data were collected during the OpTAT study. […] Blood samples were collected from patients during their regular medical visits, with a maximum of eight samples taken per patient.
# The digital monitor allowed us to provide accurate information on treatment implementation (i.e., the extent to which the patient’s dosing history is in line with the prescription—the correct dosing regimen, at the correct time and in the right condition) and temporary or long-term discontinuation of treatment (i.e., when the patient stops taking the treatment prematurely). For the remaining patients, dosing history was reconstructed based on information from the medical consultation notes, assuming steady-state condition if no information was available. Patient demographic and clinical data were extracted from medical records. For all clinical and laboratory data (e.g., body weight, hepatic or renal function), the closest measurement to the blood sample was used. If no measurement was taken within 10 days before or after the sample, then it was considered a missing value. Creatinine clearance (CrCL) was estimated using the Cockcroft–Gault formula [43]. Fat-free mass (FFM) was calculated using the following formula [44]:(1) FFMkg=BW×1−BFPbmi/100 with BW denoting bodyweight in kg and BFPbmi denoting body fat percentage, calculated using the following formula:(2) BFPbmi%=1.20×BMI+0.23×AGE−10.8×SEX−5.4 with BMI representing body mass index, in kg/m^2. SEX = 0 if women and 1 if men and AGE is provided in years.
# The development of the population pharmacokinetic (popPK) model was performed using nonlinear mixed-effect modelling (Nonmem, ICON, Dublin, Ireland, version 7.4.3) and Pearl speaks Nonmem (PsN, version 4.8.0). Pirana (Certara, Radnor, PA, USA, version 2.9.6) was used for the management of runs, R (version 4.0.2), for graphical and statistical analyses.
# A classical stepwise procedure was used to build the model. […] Inter-individual variability (IIV) was successively incorporated into each PK parameter. Different error models, including additive, proportional, and combined error models, were also assessed. Different values retrieved from the literature of absorption rate constants (ka), ranging from 0.4 to 2 h^−1, were evaluated due to insufficient data being collected during the absorption phase. For each patient, the time required to reach maximum concentration (Tmax) was estimated.
# Biologically relevant covariates were introduced into the model through a forward/backward insertion/deletion method. Covariates tested were sex, body weight, body mass index (BMI), body surface area (BSA), age, FFM, CrCL, urea, total bilirubin, alkaline phosphatase (PAL), aspartate aminotransferase (ASAT), alanine aminotransferase (ALAT), concomitant administration of dabrafenib, and food intake. Initially, a univariate analysis was conducted, during which covariates were added one by one to the model. Continuous covariates were centred and normalized to the population median and were added to the model using either linear or allometric relationships, while categorical covariates followed a linear relationship. Missing values were assigned the population median. Subsequently, a multivariate analysis was performed of the identified significant covariates to develop the comprehensive model. Finally, a reductive analysis was performed to retain only the most significant covariates.
# The assumption of steady state for patients without adherence information may have biased the analysis by interpreting low levels as high clearances resulting from missed doses rather than from a covariate effect. To verify this, a sensitivity analysis was conducted of the 11 patients with full adherence information. We assumed that if the significant covariate–parameter relationship persisted, its influence on the pharmacokinetic parameter would be confirmed, whereas, if not, this influence might have been confounded by other factors, including suboptimal adherence.
# [3] = cited from earlier work; remark: listed apart in the source
# [4] = Figure 1; cited from earlier work
# [5] = set-up: method as in PMID 32283865; settings: fixed to a literature value; cited from earlier work
# [6] = cited from earlier work; remark: listed apart in the source
# [7] = system: cytochrome P (CYP) enzymes; set-up: method as in earlier work; settings: cited from earlier work
# [8] = bootstrap performed on 2000 runs
smiles,measurement,setting,value
CC(=O)Nc1cccc(-n2c(=O)n(C3CC3)c(=O)c3c(Nc4ccc(I)cc4F)n(C)c(=O)c(C)c32)c1 [trametinib],Steady-state at day,[1]; Figure 1,15 days
same,excreted in the urine,[1],19%
same,terminal half-life,[1],around 127 h
same,time at which maximum concentration is reached after administration,[1],approximately 1.5 h
same,excreted in the urine,[1]; listed as Trametinib,≤ 19%
same,bioavailability,[1]; oral,72%
same,decrease in CL,[2]; 80-year-old versus 30-year-old patient,40%
same,increase in CL,[2]; FFM of 68 kg compared with population median of 46.35 kg,66%
same,"IIV (CV%) on CL, base model",[2]; base two-compartment model,45%
same,"central volume (V2), base model",[2]; base two-compartment model,102 L
same,"intercompartmental clearance (Q), base model",[2]; base two-compartment model,35.1 L/h
same,"peripheral volume (V3), base model",[2]; base two-compartment model,338 L
same,"IIVCL, Bootstrap Median (95% PI)",[2]; [8],"22 (13, 28) %"
same,"Q, Bootstrap Median (95% PI)",[2]; [8],"28.83 (12.69, 60.68) L·h^−1"
same,"V2, Bootstrap Median (95% PI)",[2]; [8],"101.84 (65.42, 143.40) L"
same,"V3, Bootstrap Median (95% PI)",[2]; [8],"286.48 (104.63, 385.40) L"
same,"θAGE, Bootstrap Median (95% PI)",[2]; [8],−0.66 (−1.25 to −0.20)
same,"θCL, Bootstrap Median (95% PI)",[2]; [8],"3.98 (3.52, 4.45) L·h^−1"
same,"θFFM, Bootstrap Median (95% PI)",[2]; [8],"1.41 (0.92, 1.90)"
same,"σprop, Bootstrap Median (95% PI)",[2]; [8],"20 (16, 24) %"
same,"Tmax, median (min, max) estimated per patient","[2]; both, human, in vivo",1.7 h
same,Tmax,"[2]; both, human, in vivo, Tmax, median (min, max) estimated per patient",1.75 h
same,clearance,"[2]; both, human, plasma, oral",70 mL/min
same,CL variability explained by age,[2]; covariate age,21%
same,increase in CL with coadministration of dabrafenib,"[2]; covariate analysis, RSE = 46%, effect excluded after sensitivity analysis (adherence confounding)",40%
same,CL variability explained by FFM,[2]; covariate fat-free mass,66%
same,"IIVCL (inter-individual variability of CL, CV), Final Model Estimation (RSE %)",[2]; final model,23 (14) %
same,"Q (typical intercompartmental clearance), Final Model Estimation (RSE %)",[2]; final model,29.4 (30) L·h^−1
same,"V2 (typical volume of distribution, central), Final Model Estimation (RSE %)",[2]; final model,108 L and 108 (16) L
same,"V3 (peripheral volume of distribution), Final Model Estimation (RSE %)",[2]; final model,286 L and 286 (25) L
same,"θCL (typical clearance), Final Model Estimation (RSE %)",[2]; final model,3.96 L·h^−1 and 3.96 (6) L·h^−1
same,"σprop (proportional residual error, CV), Final Model Estimation (RSE %)",[2]; final model,20 (10) %
same,"θAGE (effect of age on CL), Final Model Estimation (RSE %)","[2]; final model, AGEmedian = 63 years",−0.69 (32)
same,"θFFM (effect of fat-free mass on CL), Final Model Estimation (RSE %)","[2]; final model, FFMmedian = 46.35 kg",1.41 (17)
same,lipophilicity (in words),[3],lipophilic
same,Most frequent adverse events: Abdominal pain,[4],17%
same,Most frequent adverse events: Arthralgia,[4],26%
same,Most frequent adverse events: Asthenia,[4],15%
same,Most frequent adverse events: Chills,[4],33%
same,Most frequent adverse events: Constipation,[4],13%
same,Most frequent adverse events: Coughing,[4],20%
same,Most frequent adverse events: Cutaneous dryness,[4],13%
same,Most frequent adverse events: Diarrhea,[4],32%
same,Most frequent adverse events: Erythema,[4],10%
same,Most frequent adverse events: Fatigue,[4],38%
same,Most frequent adverse events: Flu infection,[4],11%
same,Most frequent adverse events: Haemorrhages,[4],19%
same,Most frequent adverse events: Headache,[4],33%
same,Most frequent adverse events: Hypertension,[4],19%
same,Most frequent adverse events: Increase in ALAT,[4],14%
same,Most frequent adverse events: Increase in ASAT,[4],13%
same,Most frequent adverse events: Loss of appetite,[4],14%
same,Most frequent adverse events: Muscle cramps,[4],10%
same,Most frequent adverse events: Myalgia,[4],15%
same,Most frequent adverse events: Nausea,[4],38%
same,Most frequent adverse events: Pain in the extremities,[4],12%
same,Most frequent adverse events: Peripheral oedema,[4],16%
same,Most frequent adverse events: Pruritus,[4],10%
same,Most frequent adverse events: Pyrexia,[4],58%
same,Most frequent adverse events: Rash,[4],24%
same,Most frequent adverse events: Rhinopharyngitis,[4],11%
same,Most frequent adverse events: Vomiting,[4],29%
same,Most frequent adverse events: dizziness,[4],11%
same,ka (absorption rate constant),[5],0.913 h^−1 and 0.913 fixed h^−1
same,CL in a previous popPK model (first value named),[6],5.83 L/h
same,CL in a previous popPK model (second value named),[6],4.91 L/h
same,peripheral volume of distribution,[6]; ref Balakirouchenane et al. [38],417 L
same,central volume of distribution,[6]; ref Ouellet et al. [37],214 L
same,peripheral volume of distribution,[6]; ref Ouellet et al. [37],568 L
same,substrate of cytochrome P (CYP) enzymes,[7],not a substrate

# From article PMC11201946 (Cancers, 2024)
